How the values were obtained:
Male ddY mice [1] = test: Suppressing activity on morphine analgesic tolerance (hot plate method, response latency); format: in vivo; settings: for ΔChange (Latency at each time point − Pre value) 0.5 h: day 7, 0.5 h; for ΔChange (Latency at each time point − Pre value) 1 h: day 7, 1 h; for ΔChange (Latency at each time point − Pre value) 2 h: day 7, 2 h
Male ddY mice [2] = test: Suppressing activity on oxycodone analgesic tolerance (hot plate method, response latency); settings: for Latency (sec) Pre value (before drug administration on last day) / ΔChange (Latency at each time point − Pre value) 0.5 h / ΔChange (Latency at each time point − Pre value) 1 h / ΔChange (Latency at each time point − Pre value) 2 h: Table 6
[3] = Table 5, compound 30 mg/kg p.o. repeatedly administered alone
[4] = Table 5, repeated combination group: compound 30 mg/kg p.o. 30 min before each morphine 6 mg/kg s.c., 7 days
[5] = Test Example 6, compound 30 mg/kg p.o. 30 min before each morphine 6 mg/kg s.c., 7 days
[6] = Test Example 6, compound 30 mg/kg p.o. repeatedly administered alone
[7] = Table 2, Compound (IIIC) 1 mg/kg p.o. repeatedly administered alone
[8] = Table 2, repeated combination group: Compound (IIIC) 1 mg/kg p.o. 30 min before each morphine 6 mg/kg s.c., 7 days
[9] = Table 4, Compound (IIA) 100 mg/kg p.o. repeatedly administered alone
[10] = Table 4, repeated combination group: Compound (IIA) 100 mg/kg p.o. 30 min before each morphine 6 mg/kg s.c., 7 days
[11] = Table 4, Compound (VII) 60 mg/kg p.o. repeatedly administered alone
[12] = Table 4, repeated combination group: Compound (VII) 60 mg/kg p.o. 30 min before each morphine 6 mg/kg s.c., 7 days
[13] = Table 1, Compound (IIIB) 3 mg/kg p.o. repeatedly administered alone
[14] = Table 1, repeated combination group: Compound (IIIB) 3 mg/kg p.o. 30 min before each morphine 6 mg/kg s.c., 7 days
[15] = Table 4, Compound (VIA) 30 mg/kg p.o. repeatedly administered alone
[16] = Table 4, repeated combination group: Compound (VIA) 30 mg/kg p.o. 30 min before each morphine 6 mg/kg s.c., 7 days

COCCOc1ccc(N2CCN(CCn3ncc4c3nc(N)n3nc(-c5ccco5)nc43)CC2)cc1 [Compound (IVA)]
ΔChange (Latency at each time point − Pre value) 0.5 h (Male ddY mice [1]; [3]): 0.5 ± 0.6 s | ΔChange (Latency at each time point − Pre value) 1 h (Male ddY mice [1]; [3]): −0.4 ± 1.0 ^ sec | ΔChange (Latency at each time point − Pre value) 2 h (Male ddY mice [1]; [3]): -0.5 ± 1.4 s | ΔChange (Latency at each time point − Pre value) 0.5 h (Male ddY mice [1]; [4]): 14.9 ± 1.6 s | ΔChange (Latency at each time point − Pre value) 1 h (Male ddY mice [1]; [4]): 8.3 ± 0.4 s | ΔChange (Latency at each time point − Pre value) 2 h (Male ddY mice [1]; [4]): 0.7 ± 1.1 s | development of analgesic tolerance (response latency) (Male ddY mice [1]; [5]): the development of analgesic tolerance was prevented | effect on the response latency (Male ddY mice [1]; [6]): the effect on the response latency was not observed

Cc1ccc(C(=O)Nc2nc(-c3ccco3)c(C(=O)C3CCOCC3)s2)cn1 [Compound (IIIC)]
ΔChange (Latency at each time point − Pre value) 0.5 h (Male ddY mice [1]; [7]): −2.2 ± 1.3^ sec | ΔChange (Latency at each time point − Pre value) 1 h (Male ddY mice [1]; [7]): -1.0 ± 0.7 s | ΔChange (Latency at each time point − Pre value) 2 h (Male ddY mice [1]; [7]): -1.0 ± 0.9 s | ΔChange (Latency at each time point − Pre value) 0.5 h (Male ddY mice [1]; [8]): 16.1 ± 2.4 s | ΔChange (Latency at each time point − Pre value) 1 h (Male ddY mice [1]; [8]): 9.3 ± 1.6 s | ΔChange (Latency at each time point − Pre value) 2 h (Male ddY mice [1]; [8]): 1.9 ± 0.9 s | development of analgesic tolerance (response latency) (Male ddY mice [1]; Test Example 3, Compound (IIIC) 1 mg/kg p.o. 30 min before each morphine 6 mg/kg s.c., 7 days): the development of analgesic tolerance was prevented | effect on the response latency (Male ddY mice [1]; Test Example 3, Compound (IIIC) 1 mg/kg p.o. repeatedly administered alone): the effect on the response latency was not observed

CC(C)(O)CCN1CCN(c2cc3nc(-c4ccco4)nn3c(N)n2)CC1 [Compound (IIA)]
ΔChange (Latency at each time point − Pre value) 0.5 h (Male ddY mice [1]; [9]): 1.2 ± 1.5 s | ΔChange (Latency at each time point − Pre value) 1 h (Male ddY mice [1]; [9]): 1.7 ± 1.4 s | ΔChange (Latency at each time point − Pre value) 2 h (Male ddY mice [1]; [9]): 0.9 ± 1.1 s | ΔChange (Latency at each time point − Pre value) 0.5 h (Male ddY mice [1]; [10]): 12.8 ± 1.9 s | ΔChange (Latency at each time point − Pre value) 1 h (Male ddY mice [1]; [10]): 6.4 ± 1.7 s | ΔChange (Latency at each time point − Pre value) 2 h (Male ddY mice [1]; [10]): 2.4 ± 1.2 s | development of analgesic tolerance (response latency) (Male ddY mice [1]; Test Example 5, Compound (IIA) 100 mg/kg p.o. 30 min before each morphine 6 mg/kg s.c., 7 days): the development of analgesic tolerance was prevented | effect on the response latency (Male ddY mice [1]; Test Example 5, Compound (IIA) 100 mg/kg p.o. repeatedly administered alone): the effect on the response latency was not observed

COc1ccc2c3c1O[C@H]1C(=O)CC[C@@]4(O)[C@@H](C2)N(C)CC[C@]314 [oxycodone, reference compound]
Latency (sec) Pre value (before drug administration on last day) (Male ddY mice [2]; repeated oxycodone administration group: oxycodone 20 mg/kg p.o. twice a day, 4 days, day 4): 12.4 ± 1.1 s | ΔChange (Latency at each time point − Pre value) 0.5 h (Male ddY mice [2]; repeated oxycodone administration group: oxycodone 20 mg/kg p.o. twice a day, 4 days, day 4, 0.5 h): 5.9 ± 3.4 s | ΔChange (Latency at each time point − Pre value) 1 h (Male ddY mice [2]; repeated oxycodone administration group: oxycodone 20 mg/kg p.o. twice a day, 4 days, day 4, 1 h): 2.7 ± 2.3 s | ΔChange (Latency at each time point − Pre value) 2 h (Male ddY mice [2]; repeated oxycodone administration group: oxycodone 20 mg/kg p.o. twice a day, 4 days, day 4, 2 h): 0.1 ± 1.3 s | Latency (sec) Pre value (before drug administration on last day) (Male ddY mice [2]; single oxycodone administration group: distilled water twice a day 3 days, oxycodone 20 mg/kg p.o. only on day 4): 11.7 ± 1.0 s | ΔChange (Latency at each time point − Pre value) 0.5 h (Male ddY mice [2]; single oxycodone administration group: oxycodone 20 mg/kg p.o. only on day 4, 0.5 h): 17.5 ± 4.2 s | ΔChange (Latency at each time point − Pre value) 1 h (Male ddY mice [2]; single oxycodone administration group: oxycodone 20 mg/kg p.o. only on day 4, 1 h): 11.8 ± 2.0 s | ΔChange (Latency at each time point − Pre value) 2 h (Male ddY mice [2]; single oxycodone administration group: oxycodone 20 mg/kg p.o. only on day 4, 2 h): 6.9 ± 2.4 s | development of analgesic tolerance (response latency) (Male ddY mice [2]; Test Example 7, oxycodone 20 mg/kg p.o. repeatedly for 4 days vs single oxycodone administration group): the development of analgesic tolerance was observed

Cc1nc(-c2sc(NC(=O)C3CC3)nc2-c2ccccc2)no1 [Compound (VII)]
ΔChange (Latency at each time point − Pre value) 0.5 h (Male ddY mice [1]; [11]): -0.8 ± 1.0 s | ΔChange (Latency at each time point − Pre value) 1 h (Male ddY mice [1]; [11]): -0.7 ± 1.0 s | ΔChange (Latency at each time point − Pre value) 2 h (Male ddY mice [1]; [11]): 0.0 ± 0.6 s | ΔChange (Latency at each time point − Pre value) 0.5 h (Male ddY mice [1]; [12]): 12.8 ± 2.1 s | ΔChange (Latency at each time point − Pre value) 1 h (Male ddY mice [1]; [12]): 7.8 ± 1.3 s | ΔChange (Latency at each time point − Pre value) 2 h (Male ddY mice [1]; [12]): 1.8 ± 0.8 s | development of analgesic tolerance (response latency) (Male ddY mice [1]; Test Example 5, Compound (VII) 60 mg/kg p.o. 30 min before each morphine 6 mg/kg s.c., 7 days): the development of analgesic tolerance was prevented | effect on the response latency (Male ddY mice [1]; Test Example 5, Compound (VII) 60 mg/kg p.o. repeatedly administered alone): the effect on the response latency was not observed

Cc1ncc(C(=O)Nc2nc(-c3ccco3)c(C(=O)C3CCOCC3)s2)cn1 [Compound (IIIB)]
ΔChange (Latency at each time point − Pre value) 0.5 h (Male ddY mice [1]; [13]): 0.1 ± 0.5 s | ΔChange (Latency at each time point − Pre value) 1 h (Male ddY mice [1]; [13]): −0.1 ± 0.4 ^ sec | ΔChange (Latency at each time point − Pre value) 2 h (Male ddY mice [1]; [13]): 0.4 ± 1.2 s | ΔChange (Latency at each time point − Pre value) 0.5 h (Male ddY mice [1]; [14]): 18.2 ± 1.2 s | ΔChange (Latency at each time point − Pre value) 1 h (Male ddY mice [1]; [14]): 13.5 ± 0.8 s | ΔChange (Latency at each time point − Pre value) 2 h (Male ddY mice [1]; [14]): 4.8 ± 0.7 s | development of analgesic tolerance (response latency) (Male ddY mice [1]; Test Example 3, Compound (IIIB) 3 mg/kg p.o. 30 min before each morphine 6 mg/kg s.c., 7 days): the development of analgesic tolerance was prevented | effect on the response latency (Male ddY mice [1]; Test Example 3, Compound (IIIB) 3 mg/kg p.o. repeatedly administered alone): the effect on the response latency was not observed

CCCCc1nc(N)c2nc(-n3nccn3)n(C)c2n1 [Compound (VIA)]
ΔChange (Latency at each time point − Pre value) 0.5 h (Male ddY mice [1]; [15]): -0.8 ± 1.3 s | ΔChange (Latency at each time point − Pre value) 1 h (Male ddY mice [1]; [15]): 0.2 ± 2.1 s | ΔChange (Latency at each time point − Pre value) 2 h (Male ddY mice [1]; [15]): -0.2 ± 1.1 s | ΔChange (Latency at each time point − Pre value) 0.5 h (Male ddY mice [1]; [16]): 13.0 ± 2.4 s | ΔChange (Latency at each time point − Pre value) 1 h (Male ddY mice [1]; [16]): 7.6 ± 1.7 s | ΔChange (Latency at each time point − Pre value) 2 h (Male ddY mice [1]; [16]): 1.9 ± 1.3 s | development of analgesic tolerance (response latency) (Male ddY mice [1]; Test Example 5, Compound (VIA) 30 mg/kg p.o. 30 min before each morphine 6 mg/kg s.c., 7 days): the development of analgesic tolerance was prevented | effect on the response latency (Male ddY mice [1]; Test Example 5, Compound (VIA) 30 mg/kg p.o. repeatedly administered alone): the effect on the response latency was not observed

Cc1cc(Cn2nnc3c(-c4ccco4)nc(N)nc32)ccc1N [Compound (VIII)]
ΔChange (Latency at each time point − Pre value) 0.5 h (Male ddY mice [1]; [3]): −0.5 ± 0.9 ^ sec | ΔChange (Latency at each time point − Pre value) 1 h (Male ddY mice [1]; [3]): 0.1 ± 0.9 s | ΔChange (Latency at each time point − Pre value) 2 h (Male ddY mice [1]; [3]): -1.1 ± 1.1 s | ΔChange (Latency at each time point − Pre value) 0.5 h (Male ddY mice [1]; [4]): 13.6 ± 1.6 s | ΔChange (Latency at each time point − Pre value) 1 h (Male ddY mice [1]; [4]): 7.8 ± 0.8 s | ΔChange (Latency at each time point − Pre value) 2 h (Male ddY mice [1]; [4]): 1.1 ± 0.8 s | development of analgesic tolerance (response latency) (Male ddY mice [1]; [5]): the development of analgesic tolerance was prevented | effect on the response latency (Male ddY mice [1]; [6]): the effect on the response latency was not observed
